# Data from patent US10232013B2, “Use of an antimicrobial peptide TP4 in treating a cancer” (Academia Sinica, priority 2016, dated 2019).
# Where no end group is shown, it is not given here.
# Tests used:
# [1] = MTS cell viability assay, M10; type: cell-based; conditions: human, M10 normal human mammary epithelial cells, mean±SD, read-out: Cellular toxicity (cell viability), MTS assay
# Description: (§1) Cell-lines used in this study were purchased from the Bioresource Collection and Research Center (BCRC) in and the cells were cultured by the standard cell culture procedures and conditions provided by the BCRC. MB231 (BCRC 60425), MB453 (BCRC 60429), and HDF cells were cultured as previously described by Ting et al. MCF7 […] cells were maintained in α-MEM medium (ThermoFisher Scientific) supplemented with 2 mM L-glutamine, 10% FBS, 0.1 mM non-essential amino acids, 1 mM sodium pyruvate, and antibiotics (100 U mL^−1 penicillin G and […] streptomycin). M10 (BCRC 60197) cells were maintained in α-MEM medium (ThermoFisher Scientific) supplemented with 10% FBS and antibiotics. With the exception of MB231 and MB453, all cells were cultured at 37° C. with 5% CO2. For the cell viability and transfection assay, 1×10^4 cells [5×10^3 M10 cells were seeded and cultured for 48 h to allow the cells sufficient time for attachment] were seeded into the wells of a 96-well plate and cultured overnight. For the transfection assays, cells were transfected with 0.1-0.4 μg FOSB/FOSAB expression plasmid (Origene Technology Inc.) and cell viability was determined after 72 h. The transfection efficiencies (number of cells expressing eGFP/all cells) of the MB231 transfection assays were determined by observing ten randomly selected fields (from three independent transfections) of control GFP plasmid transfections under an inverted microscope (Olympus, IX71) coupled to a digital camera (Olympus DP80), using an […] (LCPlanFI 20×/0.40 Ph1). CellSens standard software (Olympus) was used for image acquisition. During the drug treatment assay, inhibitors (PD98059, BAPTA-AM, and AlP II) were added 30 min prior to TP4, and cell viability was determined at indicated time-points. Transfection was performed using LipofectAMINE™ 3000 (ThermoFisher Scientific), according to the manufacturer's recommendations. Knock-down cells were generated by transducing MB231 cells with pre-synthesized FOSB (or control) shRNA lentiviral particles (Santa Cruz Biotechnology), and selecting puromycin-resistant cells in accordance with the manufacturer's standard protocol. MB231 or M10 cells stably expressing eGFP or mOrange2 were generated through transfection with peGFP-puromycin or pmOrange2-C1 plasmid, followed by puromycin (5 μg mL^−1) or G418 (500 μg mL^−1) selection as described above.
# (§2) Cell viability was quantitatively analyzed using the CellTiter-Glo® Luminescent Cell Viability Assay kit (ATP assay) and CellTiter 96® AQueous Non-Radioactive Cell Proliferation Assay kit (MTS assay) (Promega) in accordance with the manufacturer's protocol. For MTS assay, 1×10^4 cells were seeded into the wells of a 96-well plate and cultured overnight [5×10^3 M10 cells were seeded and cultured for 48 h to enable sufficient well attachment]. Cells were subsequently treated with different doses of TP4 (2.5-20 μg mL^−1) and harvested at the indicated time-points (3-24 h). Reaction mixtures (20 μL: MTS+PMS, using a ratio 20:1) were directly added to the cells, and the plates were incubated for 3 h at 37° C. Absorbance at 490 nm is directly proportional to the number of living cells in culture and was measured using a photometer (SpectraMax® i3, Molecular Devices). ATP assay was performed as previously described by Ting et al. Lactate dehydrogenase (LDH) assays were performed by quantitatively measuring cell lysis with a Cytotoxicity Detection Kit^PLUS (LDH) (Roche) in accordance with the manufacturer's protocol. The LDH standard was purchased from Cayman Chemical. Briefly, 1×10^4 cells were seeded into the wells of a 96-well plate and cultured overnight. Culture media were replaced with fresh medium containing 1% FBS and cells were subsequently treated with different doses of TP4 (2.5-20 μg mL^−1). Supernatants were harvested at 3 h. […]
# [2] = MTS cell viability assay, HDF; type: cell-based; conditions: human, HDF dermal fibroblasts, mean±SD, read-out: Cellular toxicity (cell viability), MTS assay
# Description: as §1, §2
sequence,measurement,setting,value
"FIHHIIGGLFSAGKAIHRLIRRRRR [TP4, tilapia piscidin 4]","viability at 3 h, 2.5 μg/mL","[1]; M10, TP4 2.5 μg/mL, 3 h",101 ± 4.23%
same,"viability at 6 h, 2.5 μg/mL","[1]; M10, TP4 2.5 μg/mL, 6 h",94.8 ± 7.52%
same,"viability at 12 h, 2.5 μg/mL","[1]; M10, TP4 2.5 μg/mL, 12 h",96 ± 5.66%
same,"viability at 24 h, 2.5 μg/mL","[1]; M10, TP4 2.5 μg/mL, 24 h",94 ± 3.81%
same,"viability at 3 h, 5 μg/mL","[1]; M10, TP4 5.0 μg/mL, 3 h",97.1 ± 4.9%
same,"viability at 6 h, 5 μg/mL","[1]; M10, TP4 5.0 μg/mL, 6 h",92 ± 5.12%
same,"viability at 12 h, 5 μg/mL","[1]; M10, TP4 5.0 μg/mL, 12 h",92.6 ± 4.99%
same,"viability at 24 h, 5 μg/mL","[1]; M10, TP4 5.0 μg/mL, 24 h",91.2 ± 3.99%
same,"viability at 3 h, 10 μg/mL","[1]; M10, TP4 10.0 μg/mL, 3 h",90.8 ± 4.76%
same,"viability at 6 h, 10 μg/mL","[1]; M10, TP4 10.0 μg/mL, 6 h",84 ± 7.47%
same,"viability at 12 h, 10 μg/mL","[1]; M10, TP4 10.0 μg/mL, 12 h",83.8 ± 4.27%
same,"viability at 24 h, 10 μg/mL","[1]; M10, TP4 10.0 μg/mL, 24 h",80.7 ± 5.72%
same,"viability at 3 h, 15 μg/mL","[1]; M10, TP4 15.0 μg/mL, 3 h",84.8 ± 5.83%
same,"viability at 6 h, 15 μg/mL","[1]; M10, TP4 15.0 μg/mL, 6 h",78.9 ± 5.57%
same,"viability at 12 h, 15 μg/mL","[1]; M10, TP4 15.0 μg/mL, 12 h",65.5 ± 6.68%
same,"viability at 24 h, 15 μg/mL","[1]; M10, TP4 15.0 μg/mL, 24 h",58.4 ± 6.8%
same,"viability at 3 h, 20 μg/mL","[1]; M10, TP4 20.0 μg/mL, 3 h",67.9 ± 5.16%
same,"viability at 6 h, 20 μg/mL","[1]; M10, TP4 20.0 μg/mL, 6 h",60.3 ± 4.97%
same,"viability at 12 h, 20 μg/mL","[1]; M10, TP4 20.0 μg/mL, 12 h",47.2 ± 8.42%
same,"viability at 24 h, 20 μg/mL","[1]; M10, TP4 20.0 μg/mL, 24 h",44 ± 4.5%
same,"viability at 3 h, 2.5 μg/mL","[2]; TP4 2.5 μg/mL, 3 h",105 ± 6.49%
same,"viability at 6 h, 2.5 μg/mL","[2]; TP4 2.5 μg/mL, 6 h",98.6 ± 4.42%
same,"viability at 12 h, 2.5 μg/mL","[2]; TP4 2.5 μg/mL, 12 h",100 ± 4.74%
same,"viability at 24 h, 2.5 μg/mL","[2]; TP4 2.5 μg/mL, 24 h",97.2 ± 5.62%
same,"viability at 3 h, 5 μg/mL","[2]; TP4 5.0 μg/mL, 3 h",103 ± 5.88%
same,"viability at 6 h, 5 μg/mL","[2]; TP4 5.0 μg/mL, 6 h",96.8 ± 3.43%
same,"viability at 12 h, 5 μg/mL","[2]; TP4 5.0 μg/mL, 12 h",93.8 ± 3.81%
same,"viability at 24 h, 5 μg/mL","[2]; TP4 5.0 μg/mL, 24 h",92.7 ± 6.58%
same,"viability at 3 h, 10 μg/mL","[2]; TP4 10.0 μg/mL, 3 h",102 ± 9.49%
same,"viability at 6 h, 10 μg/mL","[2]; TP4 10.0 μg/mL, 6 h",92.9 ± 2.98%
same,"viability at 12 h, 10 μg/mL","[2]; TP4 10.0 μg/mL, 12 h",89.6 ± 3.87%
same,"viability at 24 h, 10 μg/mL","[2]; TP4 10.0 μg/mL, 24 h",86.1 ± 9.39%
same,"viability at 3 h, 15 μg/mL","[2]; TP4 15.0 μg/mL, 3 h",103 ± 9030%
same,"viability at 6 h, 15 μg/mL","[2]; TP4 15.0 μg/mL, 6 h",90.8 ± 6.82%
same,"viability at 12 h, 15 μg/mL","[2]; TP4 15.0 μg/mL, 12 h",85.9 ± 4.24%
same,"viability at 24 h, 15 μg/mL","[2]; TP4 15.0 μg/mL, 24 h",82.2 ± 11.4%
same,"viability at 3 h, 20 μg/mL","[2]; TP4 20.0 μg/mL, 3 h",98.6 ± 13%
same,"viability at 6 h, 20 μg/mL","[2]; TP4 20.0 μg/mL, 6 h",81 ± 12.3%
same,"viability at 12 h, 20 μg/mL","[2]; TP4 20.0 μg/mL, 12 h",80.5 ± 1.58%
same,"viability at 24 h, 20 μg/mL","[2]; TP4 20.0 μg/mL, 24 h",72.2 ± 13.5%
